Test results as given in US11225460B2, “Pyrrolidineamide derivatives and uses thereof” (SUNSHINE LAKE PHARMA CO., LTD., priority 2019, dated 2022).

Legend:
[1] = target: T1, Human recombinant monoamine oxidase B (Homo sapiens, UniProt P27338); assay: Inhibitory effect on the activity of monoamine oxidase B; type: biochemical; settings: human recombinant MAO-B, substrate benzylamine hydrochloride
T1 construct: host or cells: Sf9 cells
T1 sequence (P27338 1-520): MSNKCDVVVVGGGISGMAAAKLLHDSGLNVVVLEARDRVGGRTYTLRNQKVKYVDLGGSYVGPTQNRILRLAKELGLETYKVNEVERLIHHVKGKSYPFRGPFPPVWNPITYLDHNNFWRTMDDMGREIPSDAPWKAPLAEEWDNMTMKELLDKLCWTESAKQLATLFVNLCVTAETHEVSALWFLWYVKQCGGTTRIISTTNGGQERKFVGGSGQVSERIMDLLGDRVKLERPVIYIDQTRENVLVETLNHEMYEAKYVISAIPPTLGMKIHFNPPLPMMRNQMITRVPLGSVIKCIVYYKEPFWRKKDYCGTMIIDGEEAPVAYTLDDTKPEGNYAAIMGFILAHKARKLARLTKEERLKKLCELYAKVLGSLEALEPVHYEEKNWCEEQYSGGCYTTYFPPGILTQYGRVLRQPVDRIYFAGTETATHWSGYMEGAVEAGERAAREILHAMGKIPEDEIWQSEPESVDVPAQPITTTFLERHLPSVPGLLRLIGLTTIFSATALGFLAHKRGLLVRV
Protocol: Human recombinant monoamine oxidase B expressed in Sf9 cells was used in the test system. In the experiment, firstly, the recombinant monoamine oxidase B was dissolved in the pre-configured HEPES buffer (0.8% NaCl, 0.037% KCl, 0.0135% Na2HPO4.2H2O, 0.1% Glucan, 0.5% HEPES, pH=7.0) at a concentration of 0.3 μg/μL. To each well of a 384-well plate was added 10 μL of monoamine oxidase B solution, and the test compound with different concentrations (the final concentration of DMSO was 1%) (10 gradient concentrations were 10 mM, 1 mM, 100 μM, 10 μM, 1 μM, 100 nM, 10 nM, 1 nM, 0.1 nM, 0.01 nM) were added into the wells respectively. The standard reference compound was R-(−)-Deprenyl, the plate was incubated at room temperature for 15 min. Then, each well filled with 10 μL substrate solution (Benzylamine hydrochloride, 1 mM) was incubated at room temperature for 60 min. Then 20 μL of fluorescein detection reagent was added to each well, which was fully blended and incubated at room temperature for 20 minutes to produce stable fluorescence signal. The fluorescence signal was read by fluorescein labeling instrument, and the value was expressed by relative light intensity (RLU). The inhibitory rate on enzyme activity was calculated according to the experimental results, the calculated formula: Inh %=(Max−Signal)/(Max−Min)*100, wherein Max was the detected value at the maximum concentration of the sample, Min was the detected value at the minimum concentration of the sample, and Signal was the detected value at the current concentration of the sample.
(§1) The standard curve was obtained through the series concentration by experimental test to calculate the IC50.

[2] = target: T2, Human recombinant monoamine oxidase A (Homo sapiens, UniProt P21397); assay: Inhibitory effect on the activity of monoamine oxidase A; type: biochemical; settings: human recombinant MAO-A, substrate p-tyramine hydrochloride
T2 construct: host or cells: Sf9 cells
T2 sequence (P21397 1-527): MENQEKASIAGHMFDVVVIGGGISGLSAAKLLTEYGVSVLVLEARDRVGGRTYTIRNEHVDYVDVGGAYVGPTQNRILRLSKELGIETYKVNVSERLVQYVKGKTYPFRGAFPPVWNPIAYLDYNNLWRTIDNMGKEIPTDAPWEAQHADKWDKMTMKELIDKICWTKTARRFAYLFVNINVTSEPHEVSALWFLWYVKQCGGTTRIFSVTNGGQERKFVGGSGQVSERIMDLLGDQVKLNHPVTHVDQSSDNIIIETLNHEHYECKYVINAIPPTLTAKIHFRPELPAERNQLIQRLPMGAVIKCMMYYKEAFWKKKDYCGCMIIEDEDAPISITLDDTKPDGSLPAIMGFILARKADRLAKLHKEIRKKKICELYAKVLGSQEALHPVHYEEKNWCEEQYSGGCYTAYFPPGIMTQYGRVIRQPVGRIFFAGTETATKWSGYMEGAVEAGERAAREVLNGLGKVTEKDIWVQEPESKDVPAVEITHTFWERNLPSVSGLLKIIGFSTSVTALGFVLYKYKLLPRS
Protocol: Human recombinant monoamine oxidase A expressed in Sf9 cells was used in the test system. In the experiment, firstly, the recombinant monoamine oxidase A was dissolved in the pre-configured HEPES buffer (0.8% NaCl, 0.037% KCl, 0.0135% Na2HPO4.2H2O, 0.1% Glucan, 0.5% HEPES, pH=7.0) at a concentration of 0.3 μg/μL. To each well of a 384-well plate was added 10 μL of monoamine oxidase A solution, and the test compound with different concentrations (the final concentration of DMSO was 1%) (10 gradient concentrations were 10 mM, 1 mM, 100 μM, 10 μM, 1 μM, 100 nM, 10 nM, 1 nM, 0.1 nM, 0.01 nM) were added into the wells, respectively. The standard reference compound was Clorgyline, the plate was incubated at room temperature for 15 min. Then, each well filled with […] (p-Tyramine hydrochloride, 1 mM) was incubated at room temperature for 60 min. Then 20 μL of fluorescein detection reagent was added to each well, which was fully blended and incubated at room temperature for 20 minutes to produce stable fluorescence signal. The fluorescence signal was read by fluorescein labeling instrument, and the value was expressed by relative light intensity (RLU). The inhibitory rate on enzyme activity was calculated according to the experimental results, the calculated formula: Inh %=(Max−Signal)/(Max−Min)*100, wherein Max was the detected value at the maximum concentration of the sample, Min was the detected value at the minimum concentration of the sample, and Signal was the detected value at the current concentration of the sample.
as §1

[3] = Pharmacokinetic evaluation after intravenous or gavage administration in rats; type: in vivo, SD rats
Protocol: The LC-MS/MS system comprises Agilent 1200 series vacuum degassing furnace, quaternary pumps, well-plate autosampler, thermostatted column compartment, the API4000Qtrap Triple Quadrupole Mass Spectrometer with an electrospray ionization (ESI) source. Quantitative analysis was carried out using MRM mode. The parameters for MRM transitions are in Table 2.
Analysis was carried out on waters xbridge C18 (2.1×50 mm, […] column, 0.5 μL of sample), the analytic conditions are mobile phases cosisting of water+2 mM ammonium formate+0.1% formic acid (Phase A) and methanol+2 mM ammonium formate+0.1% formic acid (Phase B). The flow rate was 0.4 mL/min. And the gradient of Mobile phase was in Table 3.
Each animal species was divided into two groups: one was administered intravenously and the other was administered intragastrically. The compounds disclosed herein were administered in form of a solution containing 5% DMSO+5% Kolliphor HS15+90% Saline. For the group of intravenous administration, the administration dose was 1 mg/kg, and vein blood samples (0.3 ml) were collected at the time points of 0.083, 0.25, 0.5, 1.0, 2.0, 4.0, 6.0, 8.0 and 24 h after drug administration, then plasma solutions were collected by centrifuging each blood sample at 3000 rpm or 4000 rpm for 10 minutes and kept at −20° C. or −70° C. For the group of intragastric administration, the administration dose was 5 mg/kg, and vein blood samples (0.3 mL) were collected at the time points of 0.25, 0.5, 1.0, 2.0, 4.0, 6.0, 8.0 and 24 h after drug administration, then plasma solutions were collected by centrifuging each blood sample at 3000 rpm or 4000 rpm for 10 minutes and kept at −20° C. or −70° C.
20 μL of plasma was blended with 120 μl, 50 ng/ml propranolol standard water solution, then the mixture was extracted with 1.0 mL methyl tert-butyl ether (MTBE), 0.7 mL of supernatant was dried by blow with nitrogen and then dissolved again with 220 μL methanol water (methanol/water (v/v)=1/1). LC-MS/MS method was used to detect the concentration of the target compounds, and […] was used to calculate the pharmacokinetic parameters.

[4] = SD, rat, plasma, iv, i.v group, 1 mg/kg
[5] = SD, rat, plasma, po, i.g group, 5 mg/kg

C[C@H]1C[C@@H](C(N)=O)N(Cc2ccc(OCc3cccc(F)c3)cc2)C1 [Example 14, (2S,4S)-1-(4-(3-fluorobenzyloxy)benzyl)-4-methylpyrrolidine-2-formamide]
IC50 [1]: 83 nM | IC50 [2]: 27000 nM

NC(=O)[C@@H]1CC(F)(F)CN1Cc1ccc(OCc2cccc(F)c2)cc1 [Example 10, (S)-4,4-difluoro-1-(4-(3-fluorobenzyloxy)benzyl)pyrrolidine-2-formamide]
IC50 [1]: 1100 nM

NC(=O)[C@@H]1C[C@@H](F)CN1Cc1ccc(OCc2cccc(F)c2)cc1 [Example 12, (2S,4R)-4-fluoro-1-(4-(3-fluorobenzyloxy)benzyl)pyrrolidine-2-formamide]
IC50 [1]: 720 nM | AUC(0-inf) [3, 4]: 453 ng·h/mL | AUC(0-t) [3, 4]: 452 ng·h/mL | Cmax [3, 4]: 661 ng/mL | MRT inf [3, 4]: 40 min | Tmax [3, 4]: 4.98 min | clearance [3, 4]: 36.8 mL/min/kg | half-life [3, 4]: 37 min | AUC(0-inf) [3, 5]: 1830 ng·h/mL | AUC(0-t) [3, 5]: 1820 ng·h/mL | Cmax [3, 5]: 1010 ng/mL | MRT inf [3, 5]: 78.6 min | Tmax [3, 5]: 20 min | half-life [3, 5]: 39.1 min | F ([3]; i.g group, 5 mg/kg): 80.7%

NC(=O)[C@@H]1CC(F)(F)CN1Cc1ccc(OCc2cccc(F)c2)cc1F [Example 11, (S)-4,4-difluoro-1-(2-fluoro-4-(3-fluorobenzyloxy)benzyl) pyrrolidine-2-formamide]
IC50 [1]: 2200 nM

CC1(C)C[C@@H](C(N)=O)N(Cc2ccc(OCc3cccc(F)c3)cc2)C1 [Example 8, (S)-1-(4-(3-fluorobenzyloxy)benzyl)-4,4-dimethylpyrrolidine-2-formamide]
IC50 [1]: 1400 nM

C[C@H]1C[C@@H](C(N)=O)N(Cc2ccc(OCc3cccc(F)c3)cc2F)C1 [Example 15, (2S,4S)-1-(2-fluoro-4-(3-fluorobenzyloxy)benzyl)-4-methylpyrrolidine-2-formamide]
IC50 [1]: 130 nM | IC50 [2]: 29000 nM
